Measured values taken from patent publication US11833256B2, “Selective RARγ ligand-loaded nanoparticles for manipulation of targeted bone growth” (University Of Maryland, Baltimore, priority 2017, dated 2023).

Assays:
[1] = tested on: ectopic endochondral bone formation in BMP-Matrigel; assay: Ectopic bone formation model (rhBMP-2-containing Matrigel injected subcutaneously); type: in vivo, mouse; details: for biological activities in an ectopic bone formation model: mouse, in vivo; for ectopic bone formation (μCT, BV/TV): oral gavage on day 3, 5 and 7, ectopic masses collected day 12, vs vehicle
Description: Ectopic bone formation was induced in mice according to known methods. See Shimono et al., J. Orthop. Res. 28(2):271-277, 2010. Briefly, recombinant human bone morphogenetic protein-2 (rhBMP-2; Gene Script™ Corp., Piscataway, NJ) was added to growth-factor reduced Matrigel™ (BD Bioscience™, Inc., Franklin Lakes, NJ) on ice to a final concentration of 4 µg/mL. Two hundred fifty 250 μL, rhBMP-2-containing Matrigel™ was injected into the left and right subcutaneous abdominal region of 2-month-old CD-1 female mice. Ectopic tissue samples were harvested and subjected to μCT and histological analyses.
After fixation, samples were subjected to μCT analysis using a CT35 scanner (SCANCO USA™ Inc., Southeastern, PA) at 55 kV and […] for bone volume/tissue volume (BV/TV) analysis. Normalized BV/TV means were calculated by ratios of experimental versus control values.
To further evaluate the roles of RARγ and the efficacy of RARγ antagonists on bone formation, the effects of three selective RARγ antagonists were compared with the RARγ agonist, NRX204647, using a mouse ectopic bone model. Recombinant human BMP-2 containing Matrigel™ (BMPMatrigel) was transplanted subcutaneously in the abdomens of CD-1 female mice (ectopic bone formation model). The injected BMP-Matrigel™ mixture rapidly solidified and developed endochondral bone within 10 to 12 days (see FIG. 13B).
The BMP-Matrigel™ injected mice were randomly subdivided into groups and subjected to oral gavage with vehicle corn oil, RARγ agonist or each of the 3 antagonists on day 3, 5 and 7 (see structures in FIG. 13A). The control mouse with vehicle treatment had inductive masses in the Matrigel™-injected sites (see FIG. 13B). Ectopic tissue masses were collected on day 12 and subjected to X-ray and μCT analyses. Micro-CT images of pellets harvested 12 days after implantation were taken. FIG. 13C.
Mice with Matrigel™ Pellets as described above were administered vehicle or 4 mg/kg CD2665 on day 3, 5 and 7 after BMP2-Matrigel™ transplantation by gavage, and then analyzed on Day 7 or Day 12. FIG. 14A. Separately, a second group of mice were administered vehicle or 4 mg/kg CD2665 on day 7, 9 and 11 after BMP2-Matrigel transplantation and analyzed either on day 12 or 17. Pellets were collected at the indicated time, fixed and subjected to μCT analysis (bottom row). Pellets were then sectioned and stained with Alcian blue for quantitation of cartilage (top row).
Samples were first subjected to μCT analysis and were then sectioned and stained with Alcian blue for quantification of cartilage. For each group, 3 sections each (1 mm interval of 4 independent samples) were analyzed. […] For the experiments shown in FIG. 15A, mice were administered vehicle or 4 mg/kg of CD2665 by gavage on day 3, 5 and 7 from BMP-Matrigel™ implantation and samples were collected on day 7 or 12.
To examine these later stages more closely, mice implanted with BMP-Matrigel™ were treated with a RARγ antagonist on day 7, 9 and 11, and the ectopic tissue masses were analyzed on day 12 or 17 (FIG. 15B). […] The findings reaffirm that RARγ antagonists enhance cartilage formation during the middle stages of endochondral ossification and eventually lead to increases in bone formation. For experiments in FIG. 15B, mice were administered vehicle or 4 mg/kg CD2665 by gavage on day 7, 9 and 11 from implantation and analyzed on day 12 or 17. […]
Subcutaneous transplantation of rhBMP-2 containing Matrigel™ (BMP-Matrigel™) pellets in the abdomens of 2-month-old CD-1 female mice was performed. On day 3 and 10, 5 μl of empty NP or 7c-loaded NP (7c-NP: 3.5 μg in 5 μl) were injected around the Matrigel™ pellets. Ectopic bone tissue was corrected on day 15 and subjected to μCT analysis.

[2] = tested on: retinoic acid response element (RARE)-Luc; assay: RARE-luc reporter assay in primary mouse chondrocytes; type: cell-based; details: 10 nM RA added, 0.3% FBS DMEM
Description: Primary mouse epiphyseal chondrocytes were isolated from neonatal C57BL/6J mice according to known methods (Yasuhara et al., Lab. Invest. 91(12):1739-1752, 2011) and were plated on 48- or 96-well plates and serum-starved overnight. Cultures were co-transfected with canonical BMP signaling reporter Id1-Luc or retinoic acid response element (RARE)-Luc plasmids and phRG-TK (Promega™) using Lipofectamine LTX™ and Plus™ reagent (Invitrogen™) according to the manufacturer's protocol. Twenty four hours later, cells were treated with rhBMP-2 and/or retinoid and incubated for an additional 24 hours. Cells then were harvested and subjected to dual luciferase assay (Promega™). Firefly luciferase activity was normalized to renilla luciferase activity generated by phRG-TK.
Monitoring activity of RARγ antagonists by RARE reporter assay. Cells were treated with indicated doses of CD2665 or MM11253. To detect the effect of RARγ antagonists in retinoid deficient culture condition (0.3% FBS DMEM), 10 nM RA was added to all cultures in experiments reported in FIG. 8A, FIG. 8B and FIG. 8C.
Primary mouse chondrocytes were isolated and transfected with the RARE-luc reporter gene by reverse transfection according to known methods. Details of the procedure are described in Cong et al., J. Biomater. Sci. Polym. Ed. 26(11):629-643, 2015. […]

[3] = 4 mg/kg gavage day 3, 5, 7, analysed day 12
[4] = 4 mg/kg gavage day 7, 9, 11, analysed day 12

Structure (SMILES)	biological activities in an ectopic bone formation model [1]	ectopic bone formation (μCT, BV/TV) [1]	RARE-luc reporter activity (antagonists) [2]	amount of cartilage in ectopic masses (Alcian blue) ([1]; 4 mg/kg gavage day 3, 5, 7, analysed day 7)	area of cartilage in ectopic masses (Alcian blue) [1, 3]	mineralized tissue volume vs control (μCT) [1, 3]	amount of mineralized tissue vs control [1, 4]	cartilaginous tissue in ectopic masses [1, 4]	volume of bone vs control ([1]; 4 mg/kg gavage day 7, 9, 11, analysed day 17)
CC1(C)CCC(C)(C)c2cc(C3(c4ccc5cc(C(=O)O)ccc5c4)SCCS3)ccc21 [MM11253]	proven biological activities	significantly increased the amount of detectable bone	inhibited RARE-luc reporter activity	–	–	–	–	–	–
COCCOCOc1cc2ccc(-c3ccc(C(=O)O)cc3)cc2cc1C12CC3CC(CC(C3)C1)C2 [CD2665]	proven biological activities	significantly increased the amount of detectable bone	inhibited RARE-luc reporter activity	significantly higher amount of cartilage than controls	still more abundant in treated than control samples	about 2 fold	not significant	more cartilaginous tissue	significantly larger volume of bone than controls
